Like-named read-outs stand apart in the source and are kept apart here.
How the values were obtained:
Type in all cases: cell-based
[1] = system: HuTu-80 (human duodenal cancer) cells; assay: Cell viability analysis by MTT assay, HuTu-80; conditions: for IC50: Homo sapiens, HuTu80, MTT, 48 h incubation, read-out: Antiproliferative activity, IC50, HuTu80; for Selectivity index, HuTu80: ratio of IC50 on normal hFF3 cells to IC50 of HuTu80
Method: (§1) The target compounds were tested on different lines of tumor cells, HuTu-80 (human duodenal cancer), B16 (mouse melanoma), A549 (human lung adenocarcinoma), KB-3-1 (human squamous cell carcinoma), HeLa (human squamous cell carcinoma of the cervix), as well as on human noncancer cells hFF3.
(§2) Human KB-3-1 epidermoid carcinoma cell line, human HeLa cervical epithelioid carcinoma cell line, human HuTu-80 duodenal cancer cells, human A549 lung carcinoma epithelial cells, mouse B16 melanoma cell line and human hFF3 fibroblast cells were obtained from the Russian Cell Culture Collection (St. Petersburg, Russia) and were cultured in DMEM (hFF3 cells in IMDM) supplemented with 10% (v/v) heat-inactivated fetal bovine serum, penicillin (100 U mL^−1), streptomycin (100 µg mL^−1) and amphotericin ([…]). Cells were maintained in a humidified atmosphere of 5% CO2 at 37 °C.
(§3) All compounds were dissolved in dimethylsulfoxide (DMSO) and stock solutions (10 mmol L^−1) were stored at −20 °C.
(§4) Cells growing in the logarithmic phase were seeded in triplicate in 96-well plates at a density of 5 × 10^3 cells per well for HeLa and HuTu-80 cells, 7 × 10^3 cells per well for KB-3-1 and hFF3, 10 × 10^3 for A549 and 20 × 10^3 for B16. The plates were incubated at 37 °C in a humidified 5% CO2 atmosphere. Cells were allowed to adhere to the surface for 24 h and then tested compounds were added at different concentrations and incubation was continued for 48 h. Then [3-(4,5-dimethylthiazol-2-yl)-2,5-diphenyltetrazolium bromide] (MTT) solution (10 µL, 5 mg mL^−1) was added to each well and the incubation was continued for an additional 3 h. The dark blue formazan crystals formed within the healthy cells were solubilized with DMSO and the absorbance was measured using a Multiscan RC plate reader at 570 nm. The IC50 was determined as the compound concentration required to decrease the A570 to 50% compared to the control (no tested compounds, DMSO) and was determined by interpolation from dose-response curves.

[2] = system: B16 (mouse melanoma) cells; assay: Cell viability analysis by MTT assay, B16; conditions: for IC50: MTT, 48 h incubation, read-out: Antiproliferative activity, IC50, B16; for Selectivity index, B16: ratio of IC50 on normal hFF3 cells to IC50 of B16
Method: as §1, §2, §3, §4

[3] = system: A549 (human lung adenocarcinoma) cells; assay: Cell viability analysis by MTT assay, A549; conditions: for IC50: Homo sapiens, A549, MTT, 48 h incubation, read-out: Antiproliferative activity, IC50, A549; for Selectivity index, A549: ratio of IC50 on normal hFF3 cells to IC50 of A549
Method: as §1, §2, §3, §4

[4] = system: KB-3-1 (human epidermoid carcinoma) cells; assay: Cell viability analysis by MTT assay, KB-3-1; conditions: for IC50: MTT, 48 h incubation, read-out: Antiproliferative activity, IC50, KB-3-1; for Selectivity index, KB-3-1: ratio of IC50 on normal hFF3 cells to IC50 of KB-3-1
Method: as §1, §2, §3, §4

[5] = system: HeLa (human cervical epithelioid carcinoma) cells; assay: Cell viability analysis by MTT assay, HeLa; conditions: for IC50: Homo sapiens, HeLa, MTT, 48 h incubation, read-out: Antiproliferative activity, IC50, HeLa; for Selectivity index, HeLa: ratio of IC50 on normal hFF3 cells to IC50 of HeLa
Method: as §1, §2, §3, §4

[6] = system: human noncancer cells hFF3 (fibroblasts); assay: Cell viability analysis by MTT assay, normal hFF3 cells; conditions: for IC50: normal cells, MTT, 48 h incubation, read-out: Antiproliferative activity, IC50, hHFF3; for Toxic effect on normal hFF3 cells: concentrations up to 100 μM
Method: as §1, §2, §3, §4

| Structure (SMILES) | IC50 [1] | IC50 ([2]; Mus musculus, 48 h) | IC50 [3] | IC50 ([4]; Homo sapiens, KB 3-1, 48 h) | IC50 [5] | IC50 [2] | IC50 [4] | Selectivity index, KB-3-1 [4] | Selectivity index, HeLa [5] | IC50 ([6]; Homo sapiens, HFF-3, 48 h) | Toxic effect on normal hFF3 cells [6] | Selectivity index, A549 [3] | Selectivity index, HuTu80 [1] | Selectivity index, B16 [2] | IC50 [6] |
| --- | --- | --- | --- | --- | --- | --- | --- | --- | --- | --- | --- | --- | --- | --- | --- |
| CCCc1cc2cn(C3C=CC(O)C3)c(=O)nc2o1 (stereo not shown) [Compound 3a, 1-(4′-Hydroxy-2′-cyclopenten-1′-yl)-6-propyl-3H-furano[2,3-d]-pyrimidine-2-one] | > 100 µM | > 100 µM | > 100 µM | 40.1 ± 5.2 µM | 63.4 ± 6.8 µM | – | – | >2.5 | >1.6 | > 100 µM | not toxic | – | – | – | – |
| CCCCCCc1cc2cn(C3C=CC(O)C3)c(=O)nc2o1 (stereo not shown) [Compound 3c, 1-(4′-Hydroxy-2′-cyclopenten-1′-yl)-6-hexyl-3H-furano[2,3-d]-pyrimidine-2-one] | 100 µM | > 100 µM | 50.3 ± 6.1 µM | 45.3 ± 5.1 µM | > 100 µM | – | – | >2.2 | – | > 100 µM | not toxic | >1.9 | – | – | – |
| CCCCCCCCc1cc2cn(C3C=CC(O)C3)c(=O)nc2o1 (stereo not shown) [Compound 3d, 1-(4′-hydroxy-2′-cyclopenten-1′-yl)-6-octyl-3Hfurano[2,3-d]-pyrimidine-2-one] | 46.3 ± 5.7 µM | 46.2 ± 3.4 µM | 54.1 ± 6.1 µM | 47.3 ± 4.2 µM | 40.6 ± 3.9 µM | – | – | 1 | 1.2 | 48.2 ± 5.1 µM | – | 0.9 | 1 | 1 | – |
| CCCCCCCCCCc1cc2cn(C3C=CC(O)C3)c(=O)nc2o1 (stereo not shown) [Compound 3e, 1-(4′-hydroxy-2′-cyclopenten-1′-yl)-6-decyl-3Hfurano[2,3-d]-pyrimidine-2-one] | 7.3 ± 2.4 µM | 21.3 ± 3.1 µM | 36.2 ± 11.3 µM | 11.2 ± 5.3 µM | 4.5 ± 0.9 µM | – | – | 1 | 2.6 | 11.6 ± 2.1 µM | – | 0.3 | 1.6 | 0.5 | – |
| CCCCCCCCCCCCc1cc2cn(C3C=CC(O)C3)c(=O)nc2o1 (stereo not shown) [Compound 3f, 1-(4′-hydroxy-2′-cyclopenten-1′-yl)-6-dodecyl-3Hfurano[2,3-d]-pyrimidine-2-one] | 7.1 ± 0.8 µM | 4.5 ± 0.3 µM | 10.5 ± 1.9 µM | 10.2 ± 4.1 µM | 2.5 ± 0.3 µM | – | – | 1 | 4.1 | 10.2 ± 1.8 µM | – | 1 | 1.4 | 2.3 | – |
| CCCCCCCCCCc1cc2cn(C3C=CC(O)C3)c(=O)nc2[nH]1 (stereo not shown) [Compound 4e, 1-(4′-Hydroxy-2′-cyclopenten-1′-yl)-6-decyl-3H-pyrrolo[2,3-d]-pyrimidine-2-one] | 23.4 ± 7.8 µM | 25 µM | 36.2 ± 6.2 µM | 18.4 ± 7.1 µM | 11 ± 2.1 µM | 25.1 ± 2.4 µM | – | 3.4 | 5.7 | 63 µM | – | 1.7 | 2.6 | 2.5 | 62.5 ± 8.3 µM |
| CCCCCCCCCCCCc1cc2cn(C3C=CC(O)C3)c(=O)nc2[nH]1 (stereo not shown) [Compound 4f, 1-(4′-Hydroxy-2′-cyclopenten-1′-yl)-6-dodecyl-3H-pyrrolo[2,3-d]-pyrimidine-2-one] | 3.1 ± 0.4 µM | 3.1 ± 0.3 µM | 4.5 ± 0.2 µM | 4.5 ± 0.9 µM | 3.2 ± 0.4 µM | – | – | 0.8 | 1 | 3.4 ± 0.7 µM | – | 0.8 | 1.1 | 1.1 | – |

The next lines start with results.

| IC50 [1] | IC50 ([2]; Mus musculus, 48 h) | IC50 [3] | IC50 ([4]; Homo sapiens, KB 3-1, 48 h) | IC50 [5] | IC50 [2] | IC50 [4] | Structure (SMILES) | Selectivity index, KB-3-1 [4] | Selectivity index, HeLa [5] | IC50 ([6]; Homo sapiens, HFF-3, 48 h) | Toxic effect on normal hFF3 cells [6] | Selectivity index, A549 [3] | Selectivity index, HuTu80 [1] | Selectivity index, B16 [2] | IC50 [6] |
| --- | --- | --- | --- | --- | --- | --- | --- | --- | --- | --- | --- | --- | --- | --- | --- |
| > 100 µM | > 100 µM | > 100 µM | 30.1 ± 4.1 µM | 45.3 ± 5.1 µM | – | – | O=c1nc2oc(-c3ccccc3)cc2cn1C1C=CC(O)C1 (stereo not shown) [Compound 3g, 1-(4′-Hydroxy-2′-cyclopenten-1′-yl)-6-phenyl-3H-furano[2,3-d]-pyrimidine-2-one] | >3.3 | >2.2 | > 100 µM | not toxic | – | – | – | – |
| 9.9 ± 1.7 µM | 10.1 ± 2.3 µM | 7.2 ± 0.8 µM | 1.7 ± 0.2 µM | 2.3 ± 0.3 µM | – | – | CC(C)(C)c1ccc(-c2cc3cn(C4C=CC(O)C4)c(=O)nc3o2)cc1 (stereo not shown) [Compound 3h, 1-(4′-Hydroxy-2′-cyclopenten-1′-yl)-6-tertbutylphenyl-3H-furano[2,3-d]-pyrimidine-2-one] | 3 | 2.2 | 5.1 ± 0.7 µM | – | 0.7 | 0.5 | 0.5 | – |
| 80.4 ± 0.9 µM | > 100 µM | 45.3 ± 3.9 µM | 25.2 ± 3.4 µM | 50.1 ± 4.7 µM | – | – | CCCCCc1cc2cn(C3C=CC(O)C3)c(=O)nc2[nH]1 (stereo not shown) [Compound 4b, 1-(4′-Hydroxy-2′-cyclopenten-1′-yl)-6-pentyl-3H-pyrrolo[2,3-d]-pyrimidine-2-one] | >3.9 | >1.9 | > 100 µM | – | >2.2 | >1.2 | – | – |
| 20.4 ± 3.9 µM | > 100 µM | 35.2 ± 4.1 µM | 25.6 ± 2.9 µM | 50.7 ± 6.2 µM | – | – | CCCCCCc1cc2cn(C3C=CC(O)C3)c(=O)nc2[nH]1 (stereo not shown) [Compound 4c, 1-(4′-Hydroxy-2′-cyclopenten-1′-yl)-6-hexyl-3H-pyrrolo[2,3-d]-pyrimidine-2-one] | >3.9 | >1.9 | > 100 µM | – | >2.8 | >4.9 | – | – |
| 30.2 ± 2.9 µM | > 100 µM | 100 µM | 25.4 ± 3.1 µM | 20.1 ± 1.9 µM | – | – | CCCCCCCCc1cc2cn(C3C=CC(O)C3)c(=O)nc2[nH]1 (stereo not shown) [Compound 4d, 1-(4′-Hydroxy-2′-cyclopenten-1′-yl)-6-octyl-3H-pyrrolo[2,3-d]-pyrimidine-2-one] | >3.9 | >4.9 | > 100 µM | – | – | >3.3 | – | – |
| > 100 µM | > 100 µM | 50.2 ± 6.7 µM | 45.4 ± 5.3 µM | 90.2 ± 9.6 µM | – | – | O=c1nc2[nH]c(-c3ccccc3)cc2cn1C1C=CC(O)C1 (stereo not shown) [Compound 4g, 1-(4′-Hydroxy-2′-cyclopenten-1′-yl)-6-phenyl-3H-pyrrolo[2,3-d]-pyrimidine-2-one] | >2.2 | >1.1 | > 100 µM | not toxic | >2 | – | – | – |
| 25.4 ± 3.1 µM | 35 µM | 25.3 ± 2.9 µM | 15 µM | 25.8 ± 4.6 µM | 35.6 ± 4.2 µM | 15.3 ± 1.1 µM | CC(C)(C)c1ccc(-c2cc3cn(C4C=CC(O)C4)c(=O)nc3[nH]2)cc1 (stereo not shown) [Compound 4h, 1-(4′-Hydroxy-2′-cyclopenten-1′-yl)-6-(4-tertbutylphenyl)-3H-pyrrolo[2,3-d]-pyrimidine-2-one] | 4.6 | 2.7 | 70 µM | – | 2.8 | 2.8 | 1.9 | 70.9 ± 9.1 µM |

— PMC6222425, “Novel 5′-Norcarbocyclic Derivatives of Bicyclic Pyrrolo- and Furano[2,3-d]Pyrimidine Nucleosides” (Molecules : A Journal of Synthetic Chemistry and Natural …, 2018)
